# Test results from patent US20040248766A1, “Selective inhibition of intracellular amyloid-beta neurotoxicity in human neurons” (priority 2001, published 2004).
# “Also recorded” adds a separate entry of the source. Numbered stars: 1 amine (or outer) side, 2 acyl side, 3 side chain; on linkers, the order of the positions; unused ones are H or OH. Bridge positions count the residues as written; N and C are the ends. Square brackets hold non-standard residues; d marks the D form. Peptide text beside a SMILES is read from it. I, II: the chains in the order shown. * marks the point of attachment. Actinocin(9to1) = Cc1c2oc3c(C)ccc(C(=O)[*:1])c3nc-2c(C(=O)[*:2])c(N)c1=O; NMeV = CN[C@H](C(=O)O)C(C)C; Cbz = O=C(OCc1ccccc1)*; Sar = CNCC(=O)O; CH2F = FC*
# Experiments:
# primary human neurons = experiment: Microinjection of Aβ peptides into the cytosol of primary human neurons, cell death by TUNEL; type: cell-based; settings: for neuronal cell death (in words): fibrillized or non-fibrillized preparation, 10 nM, 24, 48 and 96 hours; for intracellular toxicity to human neurons (in words): peptide microinjected into cytosol
# Description: Cell cultures. Primary cultures of human neurons and astrocytes were prepared as described in LeBlanc, A., J. Neurosci. 15:7837-46 (1995), incorporated herein by reference. Fresh brain tissues were dissociated with 0.25% trypsin (Gibco-BRL) in phosphate buffered saline (PBS) at 37° C. for 15 minutes. The trypsin was inactivated. by adding 10% decomplemented fetal bovine serum (FBS, HyClone, Logan, Utah.) to the mixture. The dissociated tissues were triturated in 0.1 mg/ml DNaseI (Gibco-BRL) to obtain a homogeneous mixture. The mixture was filtered successively through 130 and 70 gm filters and centrifuged at 15,000 g for 10 minutes at 10° C. to pellet the cells. The cell pellet was washed once with PBS and once with minimal essential media (MEM, Gibco-BRL) in Earle's balanced salt solution containing 0.225% sodium bicarbonate, 1 mM sodium pyruvate, 2 mM L-glutamine, 0.1% dextrose, 1×antibiotic Pen-Strep (all from Gibco-BRL) and 5% decomplemented FBS.
# The cells were plated on poly-L-lysine-coated ACLARTM (Cat. No.: 33C; thickness: 0.5 mm; Allied Chemical, Minneapolis, Minn.) coverslips at a density of 3×10^6 cells/ml. Neurons and astrocytes were incubated at 37° C. in the MEM media with 5% CO2, and the media were changed every 48 hours. For neuron culture, 1 mM fluorodeoxyuridine (FDU, Gibco-BRL) was applied for the first 3 feedings and after that, used weekly to prevent proliferation of dividing cells. […] Microinjection or treatment was performed 10 days after plating for neurons and astrocytes.
# Aβ peptides. Aβ peptides (Bachem, King of Prussia, Pa.) were dissolved in sterile distilled water at 25 μM and incubated at 37° C. for 5 days. The peptides stock solutions were frozen and diluted in 1×PBS immediately before microinjection. […] A 250 μl aliquot was diluted to 0.25 μM and immediately frozen at −20° C. in aliquots of 50 μl. The remaining solution was incubated at 37° C. in Eppendorf tubes with continuous mixing by inversion. After incubation, the samples were removed, vortexed, sonicated twice for 1 minute in a bath type sonicator (ELMA GmbH & Co. KG, Germany) and frozen at −20° C. in […]. Each aliquot was used once to avoid possible effects of freeze and thaw cycles.
# (§1) Microinjection. Thin-walled Borosilicate glass capillaries (OD 1.0 mm, ID 0.5 mm) with microfilament (MTW1OOF-4, World Precision Instrument, Sarasota, Fla.) were pulled with a Flaming/Brown Micropipefte Puller (β-87, Sutter, Novato, Calif.) to obtain injection needles with a tip diameter of ˜0.5 μm. Microinjection was performed in the cytosol of each cell using the Eppendorf Microinjector 5246 (Hamburg, Germany) and Burleigh Micromanipulator MIS-5000 (Victor, N.Y.). Human neurons were injected with 25 pl/shot at an injection pressure of 100 hPa, a compensation pressure of 50 hPa, and an injection time of 0.1 s. Human astrocytes, M17, NT2 and La—N-1 cells were injected with 8 pl/shot at an injection pressure of 50 hPa, a compensation pressure of 30 hPa and an injection time of 0.1 s.
# The diluted peptides were injected at the indicated concentrations with 100 μg/ml dextran Texas Red (DTR) (MW: 3000, Molecular Probes, Eugene, Oreg.) as a fluorescent marker to recognize the injected cells.
# (§2) Measurement of neuronal apoptosis. Cells were fixed in freshly prepared 4% paraformaldehyde/4% sucrose for 20 minutes at room temperature and permeabilized in 0.1% Triton X-100, 0.1% sodium citrate on ice for 2 minutes. Terminal deoxynucleotidyl transferase-mediated dUTP nick end labeling (TUNEL) was performed using the In Situ Cell Death Detection Kit I as described by the manufacturer (Roche Molecular Biochemicals).
# [1] = tested on: Aβ1-42-mediated neuronal cell death; experiment: Inhibition of Aβ1-42-mediated neuronal cell death in Aβ1-42-microinjected neurons, TUNEL; type: cell-based, human; settings: 1 hour pre-incubation, 24 hours; for prevention of Aβ1-42-induced neuronal cell death (in words) / inhibition of the Aβ1-42-induced cell death: 5 μM inhibitor; for block of Aβ1-42-induced neuronal death (in words): 5 μg/ml cycloheximide or 5 μM actinomycin D
# Description: cDNA Clones. Human Bcl-2 cDNA, Bax α cDNA, and APP695 cDNA were cloned into pCep4β (Invitrogen Canada, Burlington, ON, Canada). The p53 wild type and p53R273H dominant negative cDNA may be cloned in the pCMV-NEO vector. These cDNAs were purified through GlassMAXTM (Gibco-BRL, Rockville, Mass.) and diluted at 30 ng/μl in PBS before injection.
# Neutralizing Bax antibodies. Monoclonal anti-Bax 6A7 (amino acids 12-24: Pharmingen, San Diego, Calif.) and 2D2 (amino acids 3-16: Trevigen, Gaithersburg, Md.), polyclonal anti-Bax N-20 (Santa Cruz Biotechnology, Santa Cruz, Calif.), monoclonal anti-APP 22C11 (Roche Molecular Biochemicals, Laval, PQ, Canada), mouse IgG or rabbit sera were diluted at 50 μg/ml (for 6A7, 2D2, mouse IgG and 22C11) or 25 μg/ml (for polyclonal anti-Bax and rabbit sera) in PBS before use. A toxicity curve was done to determine this concentration as the highest non-toxic concentration that can be injected in neurons.
# as §1
# as §2, with “Biochemicals). The percentage of cell death was determined as the ratio of the number of DTR-TLUNEL-double-positive cells over the total number of DIR-positive cells.” for “Biochemicals).”
# Treatment with caspase inhibitors, cycloheximide, actinomycin D. Caspase pan inhibitor, Z-Valine-Alanine-Aspartic acid-fluoromethylketone (Z-VAD-fmk) (Biomol, Plymounth Meeting, PA); caspase-6 inhibitor, Z-Valine-Glutamic acid-Isoleucine-Aspartic acid-fmk (Z-VEID-fnk); caspase-3 inhibitor, Z-Aspartic acid-Glutamic acid-Valine-Aspartic acid-fmk (Z-DEVD-fmk); and caspase-8 inhibitor, Z-Isoleucine-Glutamic acid-Threomine-Aspartic acid-fmk (Z-IETD-fmk) (Sigma, Oakville, ON, Canada) were dissolved in 100% dimethylsulphoxide (DMSO, Sigma) at 5 mM and were diluted at 5 μM into culture medium immediately before use. The medium was changed every 48 hours.
# Stock solutions of 5 mg/ml cycloheximide and 200 IM actinomycin D were made in sterile distilled water and diluted to 5 μg/ml for cycloheximide and 5 μM for actinomycin D in the culture medium immediately before use.
# Dextran Texas Red (DTR) was co-injected with Aβ1-42 to identi the injected cells from the non-injected cells. The experiment was done on 200 microinjected neurons per preparation of neurons and on three independent neuron preparations.
# human neurons = experiment: Exposure of human neurons to extracellular Aβ peptides, TUNEL and propidium iodide; type: cell-based; settings: 10 μM extracellular, 24 hours
# Description: To test if this particular batch of peptide might be neurotoxic, neurons were treated with 10 μM of peptides for 24 hours.
compound,measurement,setting,value
fibrillized Aβ1-40: Aβ1-40 incubated at 37° C. with mixing,neuronal cell death (in words),primary human neurons,neither fibrillized nor non-fibrillized Aβ1-40 cause significant cell death
non-fibrillized Aβ1-42: disaggregated Aβ1-42 diluted and immediately frozen,intracellular toxicity to human neurons (in words),primary human neurons,as neurotoxic as fibrillized
"COC(=O)C[C@H](NC(=O)[C@H](C)NC(=O)[C@@H](NC(=O)OCc1ccccc1)C(C)C)C(=O)CF [Z-VAD-fmk, Z-Valine-Alanine-Aspartic acid-fluoromethylketone] (Cbz-Val-Ala-Asp(OMe)-CH2F)",prevention of Aβ1-42-induced neuronal cell death (in words),[1],completely prevents
Aβ1-40: 40 amino acid amyloid β peptide (SEQ ID NO: 1),effect on cell viability,"primary human neurons; 10 nM aged peptide, between 24 and 96 hours",do not affect cell viability
same,cell death of microinjected neurons,"primary human neurons; 10 nM aged peptide, sixteen days after injection",50%
same,intracellular toxicity to human neurons (in words),primary human neurons,not observed to be toxic; also recorded: significant apoptosis only 16 days after microinjection
same,toxicity of extracellular peptide (in words),human neurons,"do not undergo cell death; also recorded: Neither extracellular Aβ1-40, Aβ1-42, or Aβ40-1 are toxic"
"CC[C@H](C)[C@H](NC(=O)OCc1ccccc1)C(=O)N[C@@H](CCC(=O)O)C(=O)N[C@H](C(=O)N[C@@H](CC(=O)O)C(=O)CF)[C@@H](C)O [Z-IETD-fmk, Z-Isoleucine-Glutamic acid-Threomine-Aspartic acid-fmk] (Cbz-IETD-CH2F)",prevention of Aβ1-42-induced neuronal cell death (in words),[1],completely prevents
C[C@@H]1C[C@@H]([C@H](O)CC2CC(=O)NC(=O)C2)C(=O)[C@@H](C)C1 [cycloheximide],block of Aβ1-42-induced neuronal death (in words),[1],efficiently block
"CC(C)[C@H](NC(=O)[C@H](CCC(=O)O)NC(=O)[C@H](CC(=O)O)NC(=O)OCc1ccccc1)C(=O)N[C@@H](CC(=O)O)C(=O)CF [Z-DEVD-fmk, Z-Aspartic acid-Glutamic acid-Valine-Aspartic acid-fmk]",inhibition of the Aβ1-42-induced cell death,[1],30%
"Cc1c2oc3c(C)ccc(C(=O)N[C@@H]4C(=O)N[C@H](C(C)C)C(=O)N5CCC[C@H]5C(=O)N(C)CC(=O)N(C)[C@@H](C(C)C)C(=O)O[C@@H]4C)c3nc-2c(C(=O)N[C@@H]2C(=O)N[C@H](C(C)C)C(=O)N3CCC[C@H]3C(=O)N(C)CC(=O)N(C)[C@@H](C(C)C)C(=O)O[C@@H]2C)c(N)c1=O [actinomycin D] (I: T[dV]P[Sar][NMeV] / II: T[dV]P[Sar][NMeV]; ester I:1-I:C, II:1-II:C; linker I:N-II:N via Actinocin(9to1))",block of Aβ1-42-induced neuronal death (in words),[1],efficiently block
COC(=O)C[C@H](NC(=O)[C@H](C)NC(=O)[C@@H](NC(=O)[C@H](Cc1ccc(O)cc1)NC(=O)OCc1ccccc1)C(C)C)C(=O)CF [Z-YVAD-fmk],inhibition of the Aβ1-42-induced cell death,[1],30%
non-fibrillized Aβ1-40: disaggregated Aβ1-40 diluted and immediately frozen,neuronal cell death (in words),primary human neurons,neither fibrillized nor non-fibrillized Aβ1-40 cause significant cell death
Z-Valine-Glutamic acid-Isoleucine-Aspartic acid-fmk [Z-VEID-fmk],prevention of Aβ1-42-induced neuronal cell death (in words),[1],completely prevents
